Measurements reported in article PMC9138567, “Strategy to Enhance Anticancer Activity and Induced Immunogenic Cell Death of Antimicrobial Peptides by Using Non-Nature Amino Acid Substitutions” (Biomedicines, 2022).
Non-standard residues stand in square brackets, D forms with d. Residues, ends and D or L forms follow the SMILES beside them. Bip = N[C@@H](Cc1ccc(-c2ccccc2)cc1)C(=O)O; Dip = N[C@H](C(=O)O)C(c1ccccc1)c1ccccc1; 2Nal = N[C@@H](Cc1ccc2ccccc2c1)C(=O)O

Legend:
[1] = system: OECM-1 gingival epidermoid carcinoma cells; type: cell-based; conditions: 24 h
Method: (§1) The three non-small cell lung cancer cell lines, H1975, PC 9, A549, and oral squamous cell carcinoma cell line OECM-1 were cultured in RPMI 1640 medium supplemented with 10% fetal bovine serum, 2 mM L-glutamine and 1% penicillin/ streptomycin. The oral cancer cell line C9 was cultured in DMEM with 10% fetal bovine serum, 2 mM L-glutamine, and 1% penicillin/ streptomycin.
(§2) The MTT assay was applied for cell viability test according to previous protocol. […] Medium treated with PBS served as control group. […] After medium was removed, 100 µL DMSO was added to dissolve the formazan crystal. Absorbance was measured at 570 nm using a microplate reader (TECAN Sunrise ELISA Reader).

[2] = system: H1975 non-small cell lung carcinoma cells; type: cell-based; conditions: 24 h
Method: as §1, §2

[3] = system: A549 adenocarcinomic alveolar basal epithelial cells; type: cell-based; conditions: 24 h
Method: as §1, §2

[4] = system: PC 9 non-small cell lung cancer cells with EGFR mutation; type: cell-based; conditions: 24 h
Method: as §1, §2

[5] = system: C9 oral squamous cell carcinoma cells; type: cell-based; conditions: 24 h
Method: as §1, §2

PC 9 cells [6] = experiment: JC-1 staining (mitochondrial membrane potential); type: cell-based; conditions: PC 9, 2× IC50, 120 min, serum-free RPMI, fluorescence microscopy
Method: PC 9 cells were seeded at 40,000 cells/well in a RPMI medium and allowed to adhere for 24 h. […] The JC-1 dye was added at a final concentration of 1 μg/mL for 45 min. PC 9 cells were observed using the inverted fluorescent microscope Zeiss equipped with a 20× oil objective lens (Carl Zeiss, Jena, Germany). The experiments were repeated three times independently.

PC 9 cell line = type: cell-based; conditions: for cell survival rate: 4 h; for cells killed: PC 9, 2× IC50, within 2 h, MTT
Method: A total of 5000 cells were incubated with Nal-P-113, Bip-P-113, and Dip-P-113 at 2× IC50 for 0.5, 1, 2, 3, and 4 h. After treatment, the MTT solution was further incubated for 3 h. Absorbance was measured at 570 nm on the microplate reader (TECAN Sunrise ELISA Reader) after the dissolution of the formazan crystal in 100 µL DMSO solution. The cell survival rate was calculated as aforementioned for cell viability assay.

PC 9 cells [7] = experiment: Cytochrome c release, ELISA of supernatant; type: cell-based; conditions: PC 9, 2× IC50, supernatant ELISA; for cytochrome c release, maximal value: highest over 0.5-4 h time course (Bip-P-113: at 4 h); for cytochrome c release, minimum value: lowest over 0.5-4 h time course (Bip-P-113: at 30 min)
Method: PC 9 cells were seeded with 10,000 cells/well in the 96-well plate and allowed to adhere for 48 h and then treated with Nal-P-113, Bip-P-113, and Dip-P-113 at 2× IC50 for 0.5, 1, 1.5, 2, and 4 h. Untreated cells were used as a control group. Supernatants were collected after centrifugation at 16,000× g for 10 min. Samples were analyzed using the Quantikine ELISA Rat/ Mouse Cytochrome c Immunoassay (R & D Systems, Minneapolis, MN, USA) according to the manufacturer’s protocol. The optical density at the wavelength of 450 nm of each well was determined using the microplate reader (TECAN Sunrise ELISA Reader).

PC 9 cells [8] = experiment: Extracellular HMGB1 release, Western blot; type: cell-based
Method: The PC 9 cells were seeded at the density of 25,000 cells/well and left to adhere for 48 h. Cells were treated with Nal-P-113, Bip-P-113, and Dip-P-113 at 2× IC50 for 1, 2, and 4 h. After treatment of the peptides, the supernatant and lysate of the cells were collected separately for further experiments. The supernatant was collected after centrifugation at the speed of 1400× g. The cell lysate was washed twice using PBS before the sonication of the pellet using a bio-disruptor, and the disrupted pellet was centrifuged again for 10 min under 14,000 rpm at 4 °C. The concentration of the samples was quantified using the Bradford assay. Both supernatants and cell lysate were loaded and run on the sodium dodecyl sulfate polyacrylamide gel electrophoresis (SDS-PAGE) and were then electro transferred to a polyvinylidene difluoride (PVDF) membrane (Merck-Millipore, Burlington, MA, USA) in an electro-blot system, 30 V, 400 mA, for 75 min. The membrane was incubated in blocking buffer (5% skim milk, TBST buffer) for 1 h at room temperature and washed in TBST buffer three times. The anti-HMGB1 antibody (Abcam, Cambridge, UK, ab18256) was incubated overnight at 4 °C in the dilution ratio of 1:1000. The secondary antibody of a rabbit (diluted in 1:10,000) was incubated following rinsing with PBST three times for 2 h the next day at room temperature before being developed using a luminol reagent and imaged by a detected system (ImageQuant LAS 4000 mini).

human fibroblasts (HFW) = conditions: MTT, 100 μg/mL; cited from earlier work
Method: The toxicity of the peptides was determined previously by measuring cell death using MTT assays against human fibroblasts (HFW).

PC 9 cells [9] = experiment: Extracellular ATP release, luciferin-luciferase assay; type: cell-based; conditions: for treatment time of highest ATP release (RLU): PC 9, 2× IC50, time points 0.5, 1, 1.5, 2 h, supernatant
Method: PC 9 cells were seeded at the density of 10,000 cells/ well in the 96-well plate and allowed to adhere for 48 h. Cells were treated with Nal-P-113, Bip-P-113, and Dip-P-113 at 2× IC50 for 0.5, 1, 1.5, and 2 h. Untreated cells were served as the control group. After being treated for different time points (0.5, 1, 1.5, and 2 h), the supernatant of cells was analyzed using the ENLITEN ATP luciferase assay kit (Promega, Madison, WI, USA). The level of extracellular ATP chemiluminescence was measured using the Wallac VICTOR 3 Multilabel plate reader (PerkinElmer, Shelton, CT, USA).

PC 9 cells [10] = experiment: Propidium iodide/Hoechst 33342 staining (plasma membrane integrity); type: cell-based; conditions: PC 9, 2× IC50, 120 min, serum-free RPMI, fluorescence microscopy
Method: To examine the membranolytic activities of peptides, the PI/Hoechst 33342 staining was performed in this study. The PI dye was used to stain damaged/dead cells, and Hoechst 33342 was used to specifically stain the nuclei of living cells. PC 9 cells were seeded at 20,000 cells/well in a RPMI medium and allowed to adhere for 48 h. Then, the cells were replaced with serum-free RPMI medium and then treated with 2× IC50 peptides at 37 °C for 120 min. Then, the PI and Hoechst 33342 were added at a final concentration of 1 μg/mL for 20 min. PC 9 cells were observed using the inverted fluorescent microscope Zeiss equipped with a 40× oil objective lens (Carl Zeiss, Jena, Germany). The experiments were repeated three times independently.

Row | Structure (SMILES) | IC50 [1] | IC50 [2] | IC50 [3] | IC50 [4] | IC50 [5] | mitochondrial membrane potential (JC-1) (PC 9 cells [6]) | cell survival rate (PC 9 cell line) | cells killed (PC 9 cell line) | cytochrome c release, maximal value (PC 9 cells [7]) | cytochrome c release, minimum value (PC 9 cells [7]) | HMGB1 protein in supernatant (PC 9 cells [8]; PC 9, 2× IC50, 1 h treatment) | HMGB1 protein in supernatant (PC 9 cells [8]; PC 9, 2× IC50, after 2 and 4 h) | cell death (human fibroblasts (HFW)) | ATP release compared among the peptides (PC 9 cells [9]; PC 9, 2× IC50, at the 0.5 h peak) | treatment time of highest ATP release (RLU) (PC 9 cells [9]) | plasma membrane integrity (PI entry) (PC 9 cells [10])
1 | CC(=O)N[C@@H](C)C(=O)N[C@@H](CCCCN)C(=O)N[C@@H](CCCNC(=N)N)C(=O)N[C@@H](Cc1ccc(-c2ccccc2)cc1)C(=O)N[C@@H](Cc1ccc(-c2ccccc2)cc1)C(=O)NCC(=O)N[C@@H](Cc1ccc(O)cc1)C(=O)N[C@@H](CCCCN)C(=O)N[C@@H](CCCNC(=N)N)C(=O)N[C@@H](CCCCN)C(=O)N[C@@H](Cc1ccccc1)C(=O)N[C@@H](Cc1ccc(-c2ccccc2)cc1)C(N)=O [Bip-P-113] (Ac-AKR[Bip][Bip]GYKRKF[Bip]-NH2) | 42.5 µM | 63.6 µM | 48.4 µM | 64.2 µM | 42 µM | induced changes of the mitochondrial membrane potential | below 50% | more than 80% | ~15 ng/mL | 3 ng/mL | No HMGB1 protein was observed | can hardly be detected | less than 10% | lowest ATP release | 0.5 h | cause damage to the plasma membrane integrity
2 | CC(=O)N[C@@H](C)C(=O)N[C@@H](CCCCN)C(=O)N[C@@H](CCCNC(=N)N)C(=O)N[C@H](C(=O)N[C@H](C(=O)NCC(=O)N[C@@H](Cc1ccc(O)cc1)C(=O)N[C@@H](CCCCN)C(=O)N[C@@H](CCCNC(=N)N)C(=O)N[C@@H](CCCCN)C(=O)N[C@@H](Cc1ccccc1)C(=O)N[C@H](C(N)=O)C(c1ccccc1)c1ccccc1)C(c1ccccc1)c1ccccc1)C(c1ccccc1)c1ccccc1 [Dip-P-113] (Ac-AKR[Dip][Dip]GYKRKF[Dip]-NH2) | 62.9 µM |  | 96.4 µM | 71.5 µM | 67.9 µM | induced changes of the mitochondrial membrane potential | around 60% |  | around 3.5 ng/mL | lower than 2 ng/mL | No HMGB1 protein was observed | can clearly be seen | less than 10% |  | 0.5 h | cause damage to the plasma membrane integrity
3 | CC(=O)N[C@@H](C)C(=O)N[C@@H](CCCCN)C(=O)N[C@@H](CCCNC(=N)N)C(=O)N[C@@H](Cc1ccc2ccccc2c1)C(=O)N[C@@H](Cc1ccc2ccccc2c1)C(=O)NCC(=O)N[C@@H](Cc1ccc(O)cc1)C(=O)N[C@@H](CCCCN)C(=O)N[C@@H](CCCNC(=N)N)C(=O)N[C@@H](CCCCN)C(=O)N[C@@H](Cc1ccccc1)C(=O)N[C@@H](Cc1ccc2ccccc2c1)C(N)=O [Nal-P-113] (Ac-AKR[2Nal][2Nal]GYKRKF[2Nal]-NH2) | 25.9 µM | 58.3 µM | 38.2 µM | 28.1 µM | 21.4 µM | induced changes of the mitochondrial membrane potential | below 50% | more than 80% | around 3.5 ng/mL | lower than 2 ng/mL | No HMGB1 protein was observed | can clearly be seen | less than 10% |  | 0.5 h | cause damage to the plasma membrane integrity
4 | CC(=O)N[C@@H](C)C(=O)N[C@@H](CCCCN)C(=O)N[C@@H](CCCNC(=N)N)C(=O)N[C@@H](Cc1c[nH]cn1)C(=O)N[C@@H](Cc1c[nH]cn1)C(=O)NCC(=O)N[C@@H](Cc1ccc(O)cc1)C(=O)N[C@@H](CCCCN)C(=O)N[C@@H](CCCNC(=N)N)C(=O)N[C@@H](CCCCN)C(=O)N[C@@H](Cc1ccccc1)C(=O)N[C@@H](Cc1c[nH]cn1)C(N)=O [P-113, reference compound] (Ac-AKRHHGYKRKFH-NH2; N-terminus and C-terminus assumed) |  |  |  | > 200 µM |  |  |  |  |  |  |  |  |  |  |  | 
5 | CC(=O)N[C@@H](C)C(=O)N[C@@H](CCCCN)C(=O)N[C@@H](CCCNC(=N)N)C(=O)N[C@@H](Cc1ccccc1)C(=O)N[C@@H](Cc1ccccc1)C(=O)NCC(=O)N[C@@H](Cc1ccc(O)cc1)C(=O)N[C@@H](CCCCN)C(=O)N[C@@H](CCCNC(=N)N)C(=O)N[C@@H](CCCCN)C(=O)N[C@@H](Cc1ccccc1)C(=O)N[C@@H](Cc1ccccc1)C(N)=O [Phe-P-113] (Ac-AKRFFGYKRKFF-NH2) | 120 µM |  | 99.1 µM | 173 µM | 80.5 µM |  |  |  |  |  |  |  |  |  |  | 
